Source: patent US10316017B2, “COT modulators and methods of use thereof” (Gilead Sciences, Inc., priority 2015, dated 2019)
Where two headings read alike, the source gives them in different places.

Legend:
[1] = molecular target: T1, human Cot catalytic domain (30-397 amino acids) (Homo sapiens, UniProt P41279); assay: High Throughput Cot Biochemical Assay (KinEASE TR-FRET); details: read-out: IC50 HTRF
T1 construct: Purified recombinant human Cot catalytic domain (30-397 amino acids) was purchased from Cama Biosciences; purchased Cama Biosciences (so in the source)
In short: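 Phosphorylation of 1 μM XL665-STK3 peptide by 5 nM Cot catalytic domain was measured by time-resolved FRET using a europium […] antibody. ATP was 400 μM; buffer was 10 mM MOPS pH 7.0 with Mg2+ and DTT.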

[2] = tested on: TNFα production in LPS-stimulated human monocytes; assay: Cot Monocyte TNFα Cell Based Assay; details: Homo sapiens, Monocyte, read-out: EC50 TNF
In short: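 Percent-of-control values derive from TR-FRET ratios of TNFα in spun-down media, referenced to unstimulated and LPS-stimulated wells. Exposure: 1 h compound preincubation, then 50 pg/ml LPS for 4 h, both at 37 °C, with 0.5% final DMSO.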

[3] = Cot biochemical HTRF (KinEASE TR-FRET) assay
[4] = TNFα in LPS-stimulated human monocytes
[5] = Cot KinEASE TR-FRET, 400 μM ATP
[6] = LPS-stimulated human monocytes, TNFα TR-FRET
[7] = Cot KinEASE TR-FRET (HTRF) biochemical assay, 400 μM ATP

T1 sequence (P41279 30-397): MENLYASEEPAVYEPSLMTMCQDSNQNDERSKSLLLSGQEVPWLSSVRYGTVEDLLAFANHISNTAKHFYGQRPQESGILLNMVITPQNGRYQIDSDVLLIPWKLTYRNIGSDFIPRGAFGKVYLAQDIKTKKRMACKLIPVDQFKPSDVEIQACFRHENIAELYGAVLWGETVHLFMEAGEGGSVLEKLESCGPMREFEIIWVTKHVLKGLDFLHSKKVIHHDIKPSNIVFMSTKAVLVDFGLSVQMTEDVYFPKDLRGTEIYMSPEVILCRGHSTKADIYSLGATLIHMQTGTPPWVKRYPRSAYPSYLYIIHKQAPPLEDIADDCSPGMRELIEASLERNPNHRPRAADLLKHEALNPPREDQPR

| IC50 [1, 3] | EC50 [2, 4] | IC50 [1, 5] | EC50 [2, 6] | IC50 [1, 7] | SMILES |
| --- | --- | --- | --- | --- | --- |
| 16 nM | 491 nM |  |  |  | N#Cc1cnc2c(Cl)cc(N[C@@H](c3cccc(N4CCCC4=O)c3)c3c[nH]nn3)cc2c1Nc1ccc(Cl)c(Cl)c1F [Example 531, (S)-8-chloro-4-((3,4-dichloro-2-fluorophenyl)amino)-6-(((3-(2-oxopyrrolidin-1-yl)phenyl)(1H-1,2,3-triazol-4-yl)methyl)amino)quinoline-3-carbonitrile] |
| 4 nM | 441 nM |  |  |  | N#Cc1cnc2c(F)cc(N[C@@H](c3ccccc3)c3cn(C4CCNCC4)nn3)cc2c1Nc1ccc(F)c(Cl)c1 [Example 794, (S)-4-((3-chloro-4-fluorophenyl)amino)-8-fluoro-6-((phenyl(1-(piperidin-4-yl)-1H-1,2,3-triazol-4-yl)methyl)amino)quinoline-3-carbonitrile] |
|  |  | 4 nM | 45 nM |  | Cc1c(C#N)cccc1[C@H](Nc1cc(Cl)c2ncc(C#N)c(NCC(C)(C)C)c2c1)c1cn(C2(CF)CC2)nn1 [Example 1100, (S)-8-chloro-6-(((3-cyano-2-methylphenyl)(1-(1-(fluoromethyl)cyclopropyl)-1H-1,2,3-triazol-4-yl)methyl)amino)-4-(neopentylamino)quinoline-3-carbonitrile] |
|  | 232 nM |  |  | 11 nM | CCN1CCC(n2cnc(C(Nc3cc(Cl)c4ncc(C#N)c(Nc5ccc(F)c(Cl)c5)c4c3)c3ccccc3)c2)CC1 (stereo not drawn) [Compound 27, 8-chloro-4-((3-chloro-4-fluorophenyl)amino)-6-(((1-(1-ethylpiperidin-4-yl)-1H-imidazol-4-yl)(phenyl)methyl)amino) quinoline-3-carbonitrile] |
|  | 124 nM |  |  | 9 nM | CC(C)(C)CNc1c(C#N)cnc2c(Cl)cc(N[C@H](c3cn(C4(C(N)=O)CC4)nn3)c3ccccc3Cl)cc12 [Example 70, (S)-1-(4-(((8-chloro-3-cyano-4-(neopentylamino)quinolin-6-yl)amino) (2-chlorophenyl)methyl)-1H-1,2,3-triazol-1-yl) cyclopropane-1-carboxamide] |
|  |  | 21 nM | ≥ 1000 nM |  | CC(C)(C)CNc1c(C#N)cnc2c(C#N)cc(N[C@H](c3cn(C4(C(N)=O)CCOCC4)nn3)c3ccccc3Cl)cc12 [Example 1023, (S)-4-(4-((2-chlorophenyl) ((3,8-dicyano-4-(neopentylamino)quinolin-6-yl)amino)methyl)-1H-1,2,3-triazol-1-yl)tetrahydro-2H-pyran-4-carboxamide] |
|  | 183 nM |  |  | 8 nM | [2H][C@](Nc1cc(Cl)c2ncc(C#N)c(Nc3cnc(F)c(Cl)c3)c2c1)(c1ccc(F)cc1)c1cn(C2CC2)nn1 [Example 338, (S)-8-chloro-4-((5-chloro-6-fluoropyridin-3-yl)amino)-6-(((1-cyclopropyl-1H-1,2,3-triazol-4-yl)(4-fluorophenyl)methyl-d)amino)quinoline-3-carbonitrile] |
| 22 nM | 426 nM |  |  |  | N#Cc1cnc2c(Cl)cc(N[C@@H](c3ccc(F)cc3)c3c[nH]nn3)cc2c1Nc1ccc(F)c(Cl)c1 [Example 819, (S)-8-chloro-4-((3-chloro-4-fluorophenyl)amino)-6-(((4-fluorophenyl)(1H-1,2,3-triazol-4-yl)methyl)amino)quinoline-3-carbonitrile] |
|  |  | 3 nM | 49 nM |  | Cc1c(C#N)cccc1[C@H](Nc1cc(C#N)c2ncc(C#N)c(NCC(C)(C)C)c2c1)c1cn(C2(C(F)(F)F)CC2)nn1 [Example 995, (S)-6-(((3-cyano-2-methylphenyl)(1-(1-(trifluoromethyl)cyclopropyl)-1H-1,2,3-triazol-4-yl)methyl)amino)-4-(neopentylamino)quinoline-3,8-dicarbonitrile] |
|  | 44 nM |  |  | 2 nM | [2H][C@](Nc1cc(C#N)c2ncc(C#N)c(N[C@H](CC#N)c3ccccc3)c2c1)(c1ccc(F)cc1)c1cn(C2CC2)nn1 [Example 202, 4-(((R)-2-cyano-1-phenylethyl)amino)-6-(((S)-(1-cyclopropyl-1H-1,2,3-triazol-4-yl)(4-fluorophenyl)methyl-d)amino)quinoline-3,8-dicarbonitrile] |
| 7310 nM | > 10000 nM |  |  |  | CC(C)n1cc([C@@H](Nc2cc(Cl)c3ncc(C#N)c(NC4CCN(C)CC4)c3c2)c2ccccc2)nn1 [Example 541, (S)-8-chloro-6-(((1-isopropyl-1H-1,2,3-triazol-4-yl)(phenyl)methyl)amino)-4-((1-methylpiperidin-4-yl)amino)quinoline-3-carbonitrile] |
|  | 6630 nM |  |  | 294 nM | [2H][C@](Nc1cc(Cl)c2ncc(C#N)c(N[C@H]3CCCC[C@@H]3O)c2c1)(c1ccc(F)cc1)c1cn(C2CC2)nn1 [Example 236, 8-chloro-6-(((S)-(1-cyclopropyl-1H-1,2,3-triazol-4-yl)(4-fluorophenyl)methyl-d)amino)-4-(((1S,2S)-2-hydroxycyclohexyl)amino) quinoline-3-carbonitrile] |
| 198 nM | > 10000 nM |  |  |  | CC[N+](C)(CC)CCn1cc([C@@H](Nc2cc(Cl)c3ncc(C#N)c(Nc4ccc(Cl)c(Cl)c4F)c3c2)c2ccccc2)nn1 [Example 530, (S)-2-(4-(((8-chloro-3-cyano-4-((3,4-dichloro-2-fluorophenyl)amino)quinolin-6-yl)amino)(phenyl)methyl)-1H-1,2,3-triazol-1-yl)-N,N-diethyl-N-methylethan-1-aminium] |
|  |  | 9 nM | 72 nM |  | [2H][C@](Nc1cc(C#N)c2ncc(C#N)c(NCC(C)(C)C)c2c1)(c1ccc(F)cc1)c1cn(C2(CF)CC2)nn1 [Example 1006, (S)-6-(((1-(1-(fluoromethyl)cyclopropyl)-1H-1,2,3-triazol-4-yl)(4-fluorophenyl)methyl-d)amino)-4-(neopentylamino)quinoline-3,8-dicarbonitrile] |
| 70 nM | 1290 nM |  |  |  | CC(C)(C)N1CCC(n2cc([C@@H](Nc3cc(Cl)c4ncc(C#N)c(Nc5ccc(Cl)c(Cl)c5)c4c3)c3ccc(Cl)cc3)nn2)CC1 [Example 765, (S)-6-(((1-(1-(tert-butyl)piperidin-4-yl)-1H-1,2,3-triazol-4-yl)(4-chlorophenyl)methyl)amino)-8-chloro-4-((3,4-dichlorophenyl)amino)quino1ine-3-carbonitrile] |
|  | 522 nM |  |  | 50 nM | [2H][C@@](Nc1cc(Cl)c2ncc(C#N)c(NCC(C)(C)C)c2c1)(c1cn(CC2(F)COC2)nn1)c1ccccc1Cl [Example 103, 8-chloro-6-(((2-chlorophenyl) (1-((3-fluorooxetan-3-yl)methyl)-1H-1,2,3-triazol-4-yl)methyl-d)amino)-4-(neopentylamino) quinoline-3-carbonitrile] |
|  | 1620 nM |  |  | 296 nM | [2H][C@](Nc1cc(Cl)c2ncc(C#N)c(NC3CC3)c2c1)(c1ccc(F)cc1)c1cn(C2CC2)nn1 [Example 220, (S)-8-chloro-6-(((1-cyclopropyl-1H-1,2,3-triazol-4-yl)(4-fluorophenyl)methyl-d)amino)-4-(cyclopropylamino)quinoline-3-carbonitrile] |
| 65 nM | 966 nM |  |  |  | COc1ccc(Nc2c(C#N)cnc3c(Cl)cc(N[C@@H](c4ccccc4)c4cn(C5CCN(C(C)(C)C)CC5)nn4)cc23)cn1 [Example 492, (S)-6-(((1-(1-(tert-butyl)piperidin-4-yl)-1H-1,2,3-triazol-4-yl)(phenyl)methyl)amino)-8-chloro-4-((6-methoxypyridin-3-yl)amino)quinoline-3-carbonitrile] |
